# Reference: PubChem BioAssay (NCI)
#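 Cells were grown in 96-well plates and exposed to each compound for 48 hours at five concentrations; endpoints were interpolated linearly between bracketing concentrations, or set to the highest concentration if not reached. GI50: concentration for 50% inhibition of growth. TGI is the concentration that stops growth completely.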
# What was measured:
# Assay in all cases: inhibition of tumour cell growth, NCI panel, 48 h
# OVCAR-4 ovarian = test system: OVCAR-4 ovarian
# MOLT-4 leukemia = test system: MOLT-4 leukemia
# EKVX NSCLC = test system: EKVX NSCLC
# ACHN renal = test system: ACHN renal
# NCI-H522 lung = test system: NCI-H522 lung
# CCRF-CEM leukemia = test system: CCRF-CEM leukemia
# SK-MEL-28 melanoma = test system: SK-MEL-28 melanoma
# SF-295 CNS = test system: SF-295 CNS
# NCI-H226 lung = test system: NCI-H226 lung
# HL-60(TB) leukemia = test system: HL-60(TB) leukemia
SMILES,TGI (OVCAR-4 ovarian) [µM],TGI (MOLT-4 leukemia) [µM],TGI (EKVX NSCLC) [µM],TGI (ACHN renal) [µM],TGI (NCI-H522 lung) [µM],TGI (CCRF-CEM leukemia) [µM],TGI (SK-MEL-28 melanoma) [µM],GI50 (OVCAR-4 ovarian) [µM],GI50 (MOLT-4 leukemia) [µM],GI50 (EKVX NSCLC) [µM],GI50 (ACHN renal) [µM],GI50 (SF-295 CNS) [µM],TGI (SF-295 CNS) [µM],GI50 (NCI-H522 lung) [µM],GI50 (CCRF-CEM leukemia) [µM],GI50 (SK-MEL-28 melanoma) [µM],GI50 (NCI-H226 lung) [µM],TGI (NCI-H226 lung) [µM],GI50 (HL-60(TB) leukemia) [µM],TGI (HL-60(TB) leukemia) [µM]
COc1ccc2oc3c(OC)c(OC)c(OC)cc3c(=O)c2c1,> 100,> 100,> 100,> 100,> 100,> 100,> 100,–,–,–,–,–,–,–,–,–,–,–,–,–
[N-]=[N+]=NCCCn1c2c(c3ccc([N+](=O)[O-])cc3c1=O)C(=O)c1cc(Br)ccc1-2,> 100,> 100,> 100,> 100,> 100,> 100,> 100,> 100,1.15,> 100,> 100,1.66,> 100,> 100,0.545,> 100,> 100,> 100,–,–
COc1ccc(-c2ccc(/C=N/n3c(COc4ccccc4Cl)nn(CN4CCOCC4)c3=S)o2)c([N+](=O)[O-])c1,> 100,51.7,> 100,> 100,> 100,47.9,> 100,35.1,19.3,54.9,33.6,38.1,> 100,38.9,18.7,46,–,–,17,39
C1CCCCc2nc3c(nc2CCC1)c1nc2c(nc1c1nc4c(nc31)CCCCCCCC4)CCCCCCCC2,–,> 100,–,> 100,–,> 100,> 100,–,–,–,–,–,> 100,–,–,–,–,–,–,> 100
Cc1ccc(-c2nc(/C=N/Nc3cc(C)nc4ccc(Cl)cc34)c(C)o2)cc1,3.42,4.88,3.21,3.05,–,4.81,3.29,1.8,2.02,1.7,1.68,1.8,3.31,–,1.61,1.81,1.84,3.72,1.12,2.97
CC1=C(SC#N)S(=O)(=O)N(c2ccccc2)C(C)=C1SC#N,> 100,57.8,–,> 100,> 100,45.8,> 100,–,–,–,–,–,67.1,–,–,–,–,81.6,–,> 100
COc1cc(/C=C/c2ccc(O)c(OC)c2)cc(OC)c1,> 100,> 100,> 100,80,–,> 100,> 100,–,–,–,–,–,54.7,–,–,–,–,–,–,78.1
COc1ccccc1NC(=O)C1=C(C)NC(C)=C(C(=O)Nc2ccccc2OC)C1/C=C/c1ccccc1,> 100,> 100,> 100,> 100,–,> 100,> 100,–,–,–,–,–,> 100,–,–,–,–,> 100,–,> 100
CCOC(=O)C(Cc1ccc(N(CCCl)CCCl)cc1)NC(=O)C(Cc1ccccc1)NC=O (stereo unspecified),0.123,0.161,0.538,0.105,0.167,0.241,–,–,–,–,–,–,0.523,–,–,–,–,–,–,0.279
COC1CC(O)C(OC(=O)c2ccccc2)C(C)O1 (stereo unspecified),> 100,> 100,–,–,> 100,> 100,> 100,–,–,–,–,–,> 100,–,–,–,–,> 100,–,> 100
ClCc1ccccc1Cn1cnc2ncnc(Cl)c21,20.5,4.24,17.6,4.27,7.64,3.53,18.7,4.94,1.65,5.33,2,7.93,20.5,2.83,1.45,4.47,3.35,7.89,–,–
CCCCCC(=O)Nc1nc2nc[nH]c2c(=O)[nH]1,> 100,> 100,> 100,> 100,> 100,> 100,–,–,–,–,–,–,> 100,–,–,–,–,> 100,–,> 100
Cc1ccc2nc(NC(=O)C(=O)C(C#N)c3ccc(Cl)cc3)sc2c1 (stereo unspecified),> 50,–,> 50,> 50,–,–,> 50,–,–,–,–,–,> 50,–,–,–,–,> 50,–,–
CC1OC(=O)C(O)=C1O (stereo unspecified),> 100,> 100,> 100,> 100,> 100,> 100,–,–,–,–,–,–,> 100,–,–,–,–,> 100,–,–
CN=C1C=CC(=C(c2ccc(N(C)C)cc2)c2ccc(N(C)C)cc2)C=C1,2.7,6.98,2.62,1.33,0.801,7.57,2.07,0.378,0.369,0.237,0.326,0.147,0.473,0.253,0.256,0.482,–,–,0.217,0.519
c1ccc(OCCC[P+](c2ccccc2)(c2ccccc2)c2ccccc2)cc1,17.7,13.7,–,52.8,4.24,18.1,13.4,0.486,3.12,–,8.94,1.97,7.77,0.574,1.85,1.09,2.3,30.5,0.285,0.832
C=C1C(O)C2CC(C)(CO)C(=O)C2=C(CC(C)C)C12CC2 (stereo unspecified),> 100,> 100,> 100,> 100,> 100,> 100,> 100,> 100,81.8,69.5,93.8,57.1,> 100,68.4,58,> 100,> 100,> 100,–,–
CCCCCCCC1(c2ccc(N)cc2)CCC(=O)NC1=O (stereo unspecified),> 100,65.7,> 100,67.3,78.6,–,> 100,–,–,–,–,–,88.1,–,–,–,–,–,–,36.6
CC(C)c1cccc(C(C)C)c1N1C(=O)C(=O)C(c2nc3ccccc3o2)C(=O)C1=O,> 100,–,> 100,> 100,50.6,> 100,> 100,–,–,–,–,–,> 100,–,–,–,–,> 100,–,> 100

SMILES,TGI (OVCAR-4 ovarian) [µM],TGI (MOLT-4 leukemia) [µM],TGI (EKVX NSCLC) [µM],TGI (ACHN renal) [µM],TGI (NCI-H522 lung) [µM],TGI (CCRF-CEM leukemia) [µM],TGI (SK-MEL-28 melanoma) [µM],GI50 (OVCAR-4 ovarian) [µM],GI50 (MOLT-4 leukemia) [µM],GI50 (EKVX NSCLC) [µM],GI50 (ACHN renal) [µM],GI50 (SF-295 CNS) [µM],TGI (SF-295 CNS) [µM],GI50 (NCI-H522 lung) [µM],GI50 (CCRF-CEM leukemia) [µM],GI50 (SK-MEL-28 melanoma) [µM],GI50 (NCI-H226 lung) [µM],TGI (NCI-H226 lung) [µM],GI50 (HL-60(TB) leukemia) [µM],TGI (HL-60(TB) leukemia) [µM]
CN1Cc2ccccc2/C=C\c2ccccc21,> 100,–,92.7,> 100,> 100,> 100,> 100,–,–,–,–,–,> 100,–,–,–,–,> 100,–,–
COC(=O)c1c(-c2cccs2)oc(-c2cccs2)c1C(=O)OC,> 100,–,> 100,> 100,69.7,> 100,> 100,77.8,–,56.8,> 70.2,19.4,51.8,25.5,27.4,56.7,38.2,98.3,79.9,> 100
CCC(C)CC(C)CC(C)/C=C(\C)C1=C(C)CC(C)(O)O1 (stereo unspecified),–,> 100,> 100,> 100,> 100,> 100,> 100,–,–,–,–,–,–,–,–,–,–,> 100,–,79
C#CC1=CC(=O)C(OC)=CC1=O,–,> 100,68.1,11.3,4.2,30.8,> 100,–,–,–,–,–,> 100,–,–,–,–,42,–,13.4
NC1c2ccccc2Nc2ccccc21,–,8.1,20.7,24.6,5.2,25.7,14.2,–,–,–,–,–,17,–,–,–,–,27.9,–,16.3
COc1ccc(-c2nc(-c3nc4ccc(C)cc4[nH]3)cc3c2[nH]c2ccccc23)cc1,> 100,10,–,> 100,42.1,18.7,> 100,4.09,2.31,–,3.05,–,–,4.39,2.94,5,4.81,58.7,4.11,37.7
Cc1cc(C)c(C#N)c(Sc2nc(C)c([N+](=O)[O-])c(C)c2C#N)n1,6.64,> 100,–,3.38,–,–,12.4,2.27,3.03,–,1.75,14.2,59.4,–,–,3.12,2.99,10.5,2.63,7.34
N#CC(C(=O)CCCC(=O)Nc1ccc(Cl)cc1Cl)c1ccccc1 (stereo unspecified),> 100,> 100,> 100,> 100,–,> 100,> 100,–,–,–,–,–,> 100,–,–,–,–,> 100,–,> 100
Cc1cccc(C(=O)O)c1C(=O)c1cccc2ccccc12,> 100,> 100,> 100,> 100,> 100,> 100,> 100,–,–,–,–,–,> 100,–,–,–,–,> 100,–,–
CCCCCCCCCCCCC(O)c1ccco1 (stereo unspecified),78.3,52,38.8,31.7,41,38.5,55.3,29.7,25.4,20.8,17.9,19.7,39.3,20,19.4,24.3,20.8,37.9,–,–
COCCOc1cc(C)cc(/C=C(C)/C=C/C2=C(C)CCCC2(C)C)n1,> 100,> 100,> 100,> 100,> 100,–,> 100,–,–,–,–,–,> 100,–,–,–,–,> 100,–,–
CC(C)c1cc(C(C)C)c(S(=O)(=O)N=[N+]=[N-])c(C(C)C)c1,> 100,> 100,–,> 100,> 100,> 100,> 100,–,–,–,–,–,–,–,–,–,–,> 100,–,> 100
COC(=O)Nc1nc2ccccc2[nH]1,> 100,> 100,> 100,> 100,–,> 100,> 100,–,–,–,–,–,32.9,–,–,–,–,> 100,–,> 31.2
CSc1nc2nc3c(nc2c(=O)n1C)C(=O)c1ccccc1C3=O,–,0.581,–,1.04,0.332,0.794,0.452,–,0.227,–,0.299,0.157,0.315,0.16,0.259,0.188,0.193,0.461,0.209,0.514
CCCCC#Cc1c(I)n(C)c(=O)[nH]c1=O,3.15,13.9,29.1,3.08,3.25,3.68,3.13,1.76,2.73,15.7,1.71,10.6,22.7,1.56,1.74,1.75,14.4,27.4,–,–
O=C(CN(/C=C/C(=O)C(F)(F)F)c1ccc(Cl)cc1)c1ccc(Cl)c(Cl)c1,28.1,10.5,29.3,9.74,8.81,11,45,8.71,2.57,14.5,2.48,4.98,17.4,2.88,3.41,16.7,12.5,30.1,–,–
Cn1cc(C2=C(c3c[nH]c4ccccc34)C(=O)NC2=O)c2ccccc21,> 25,–,–,> 25,> 25,–,> 25,> 5.06,0.458,–,1.73,0.201,–,2.11,0.264,7,1.99,> 25,0.871,6.35
Cc1ccc(NC(=O)C(=O)CC(=O)c2c(C)n([O-])c3ccccc3[n+]2=O)cc1C,> 100,–,> 100,> 100,> 100,> 100,> 100,–,–,–,–,–,> 100,–,–,–,–,> 100,–,> 100
O=C(NNc1ccc(Cl)cc1)C1CCC(CNS(=O)(=O)c2ccccc2Cl)CC1 (stereo unspecified),–,> 100,56.2,66.1,75.1,> 100,–,–,74.4,11,16.8,4.58,68.5,12.8,39.2,–,20.2,> 100,4.25,> 100
